Assay results reported in patent US7541398B2, “Method for transformation of conventional and commercially important polymers into durable and rechargeable antimicrobial polymeric materials” (priority 2005, dated 2009).

Test: Durability of SHC powders: active chlorine content titrated after storage under ambient conditions
Format: physicochemical
Details: for active chlorine content: as synthesized, before storage; for Active chlorine content, 2 month / Active chlorine content, 4 month / Active chlorine content, 6 month: storage at about 25° C.±3, humidity about 60±10%
Procedure: Durability and Rechargeability of the SHCs. Durability: After storage under ambient conditions (e.g., temperature about 25° C.±3, humidity about 60±10%) for a certain period of time, the active chlorine contents in the SHC samples were titrated and the results were listed in Table 3.

Row | Molecule | active chlorine content | Active chlorine content, 2 month | Active chlorine content, 4 month | Active chlorine content, 6 month
1 | CC1(C)CC(OC(=O)CCCCCCCCC(=O)OC2CC(C)(C)N(Cl)C(C)(C)C2)CC(C)(C)N1Cl [SHC-1, Bis(N-chloro-2,2,6,6-tetramethyl-4-piperidyl)sebacate] | 12.5% | 12.6 wt. % | 12.8 wt. % | 12.4 wt. %
2 | N-chloro-[(2,2,6,6-tetramethyl-4-piperidyl) alkyl formate] [SHC-3] | about 7.86% | 8.10 wt. % | 7.70 wt. % | 7.30 wt. %
